Assay [1] concerns pAKT (p-Akt 1/2/3 (Ser473)) in MCF-7 cells. The assay is described as follows: AlphaLISA Ultra pAKT assay. The assay is classed as cell-based. As to conditions: Homo sapiens, MCF7, 2 hours compound incubation. Here is the method: Example 156: AlphaLISA Ultra pAKT Assay
(§1) Assay Protocol: • 1. MCF-7 cells in Corning 3701 plate and incubate for 20-24 hour. 16,000-20,000 cells will be seeded in 36 μL medium per well. • 2. Change the culture medium with fresh medium and incubate for another 2 hours. • 3. Add 12 μL (4×) compounds into the cell plate by HAMILTON. Final DMSO concentration is 0.5%. Incubate for 2 hours. • 4. Aspirate 38 j L by HAMILTON, 10 μL rest per well. • 5. Add 10 μL 2× lysis buffer using HAMILTON; total volume in wells is 20 μL. Allow cells to shake for 30 min. Cover plate by plastic foil and store plate at −80° C. up to analysis. • 6. Thaw cell lysate at RT and transfer 10 ul lysate to assay plate (Optiplate-384). • 7. Add 5 ul acceptor beads into assay plate and incubation for 2 hours • 8. Add 5 ul donor beads and incubation for 2 hours • 9. Count the plate by EnSpire Multimode Plate Reader
On the technique in general: Bead proximity is the source of the signal in Alpha formats.

Assay [2] concerns pS6K1 (p-p70 S6 Kinase (Thr389)) in MCF-7 cells. Nature of the assay: AlphaLISA Ultra pS6K1 assay. As to conditions: Homo sapiens, MCF7, 2 h, 2 hours compound incubation. It is filed as cell-based. As for the experimental part:
Example 155: AlphaLISA Ultra pS6K1 assay
as §1, with “1. Seed” for “1.”, “20˜24” for “20-24”, “12,000˜16,000” for “16,000-20,000”, “μL” for “j L”

Structures are written as SMILES.

For the compound `Cc1cc(C)c(C(=O)N2CCN(c3cccc(F)c3S(=O)(=O)N=C(N(C)C)N(C)C)CC2)cc1NC1CCN(c2ccccc2C#N)CC1` [I-19, 2-{2-[4-(5-{[1-(2-cyanophenyl)piperidin-4-yl]amino}-2,4-dimethylbenzoyl)piperazin-1-yl]-6-fluorobenzenesulfonyl}-1,1,3,3-tetramethylguanidine], the IC50 (usually the point on the concentration scale where inhibition reaches its midpoint) in assay [1] was over 10000 nM; in assay [2], 1000 to 3000 nM.
The matching figures for `Cc1cc(C)c(C(=O)N2CCN(c3ccccc3)[C@H](C(C)(C)O)C2)cc1NC1CCN(c2ccccc2C#N)CC1` [I-20]: over 10000 nM and 1000 to 3000 nM.
The matching figures for `Cc1cc(C)c(C(=O)N2CCN(c3ccccc3)[C@@H](C(C)(C)O)C2)cc1NC1CCN(c2ccccc2C#N)CC1` [I-21]: over 10000 nM and 3000 to 5000 nM.
In the same order, the values of `CCCN(c1cc(C(=O)N2CCN(c3ccccc3S(N)(=O)=O)CC2)c(C)cc1C)C1CCN(c2ccccc2C#N)CC1` [I-23, 2-(4-(5-((1-(2-Cyanophenyl)piperidin-4-yl)(propyl)amino)-2,4-dimethylbenzoyl)piperazin-1-yl)benzenesulfonamide] are over 10000 nM and 1000 to 3000 nM.
On to `Cc1cc(C)c(N(CC(N)=O)C2CCN(c3ccccc3C#N)CC2)cc1C(=O)N1CCN(c2ccccc2S(N)(=O)=O)CC1` [I-27, 2-((1-(2-Cyanophenyl)piperidin-4-yl)(2,4-dimethyl-5-(4-(2-sulfamoylphenyl)piperazine-1-carbonyl)phenyl)amino)acetamide], for which the values for the IC50 in assay [1] and in assay [2] were over 10000 nM and 1000 to 3000 nM, respectively.
Consider `Cc1cc(C)c(C(=O)N2CCN(c3ncccc3C(N)=O)CC2)cc1NC1CCN(c2ccccc2C#N)CC1` [I-28], for which the IC50 in assay [1] was over 10000 nM; in assay [2], 1000 to 3000 nM.
In the same order, the values of `Cc1cc(C)c(C(=O)N2CCN(c3ccccc3C(N)=O)CC2)cc1NC1CCN(c2ccccc2C#N)CC1` [I-29] are over 10000 nM and 10 to 1000 nM.
For the compound `Cc1cc(C)c(C(=O)N2CCN(c3ccccn3)[C@@H](CO)C2)cc1NC1CCN(c2ccccc2C#N)CC1` [I-30], the IC50 in assay [1] is over 10000 nM; in assay [2] it was 10 to 1000 nM.
The matching figures for `Cc1cc(C)c(C(=O)N2CCN(c3ccccc3)C(C(N)=O)C2)cc1NC1CCN(c2ccccc2C#N)CC1` (centres unmarked) [I-31, 4-(5-{[1-(2-cyanophenyl)piperidin-4-yl]amino}-2,4-dimethylbenzoyl)-1-phenylpiperazine-2-carboxamide]: over 10000 nM and 10 to 1000 nM.
For `CNC(=O)C1CN(C(=O)c2cc(NC3CCN(c4ccccc4C#N)CC3)c(C)cc2C)CCN1c1ccccc1` (centres unmarked) [I-32, 4-(5-{[1-(2-cyanophenyl)piperidin-4-yl]amino}-2,4-dimethylbenzoyl)-N-methyl-1-phenylpiperazine-2-carboxamide], the IC50 in assay [1] was over 10000 nM; in assay [2], 1000 to 3000 nM.
The matching figures for `Cc1cc(C)c(C(=O)N2CCN(c3ccccc3)[C@@H](C)C2)cc1NC1CCN(c2ccccc2C#N)CC1` [I-33, (S)-2-(4-(2,4-Dimethyl-5-(3-methyl-4-phenylpiperazine-1-carbonyl)phenylamino)piperidin-1-yl)benzonitrile]: over 10000 nM and 5000 to 10000 nM.
In the case of `Cc1cc(C)c(C(=O)N2CCN(c3ccccn3)[C@@H](C)C2)cc1NC1CCN(c2ccccc2C#N)CC1` [I-34, 2-[4-[2,4-Dimethyl-5-[(3S)-3-methyl-4-(2-pyridyl)piperazine-1-carbonyl]anilino]-1-piperidyl]benzonitrile], the IC50 was over 10000 nM in assay [1] and 1000 to 3000 nM in assay [2].
The matching figures for `Cc1cccc(N2CCN(C(=O)c3cc(NC4CCN(c5ccccc5Cl)CC4)c(C)cc3C)CC2)n1` [I-35, (5-(1-(2-chlorophenyl)piperidin-4-ylamino)-2,4-dimethylphenyl) (4-(6-methylpyridin-2-yl)piperazin-1-yl) methanone]: over 10000 nM and 3000 to 5000 nM.
In the same order, the values of `Cc1cc(C)c(C(=O)N2CCN(c3ccc(F)cn3)CC2)cc1NC1CCN(c2ccccc2Cl)CC1` [I-36, (5-(1-(2-Chlorophenyl)piperidin-4-ylamino)-2,4-dimethylphenyl)(4-(5-fluoropyridin-2-yl)piperazin-1-yl)methanone] are over 10000 nM and 5000 to 10000 nM.
The matching figures for `Cc1cc(C)c(C(=O)N2CCN(c3ccccc3C#N)CC2)cc1NC1CCN(c2ccccc2Cl)CC1` [I-37, 2-(4-(5-(1-(2-Chlorophenyl)piperidin-4-ylamino)-2,4-dimethylbenzoyl)piperazin-1-yl)benzonitrile]: over 10000 nM and 1000 to 3000 nM.
With `Cc1cc(C)c(C(=O)N2CCN(c3ccccc3)C(C(=O)O)C2)cc1NC1CCN(c2ccccc2C#N)CC1` (centres unmarked) [I-39, 4-(5-{[1-(2-cyanophenyl)piperidin-4-yl]amino}-2,4-dimethylbenzoyl)-1-phenylpiperazine-2-carboxylic Acid], the IC50 in assay [1] and in assay [2] was over 10000 nM each time.
`Cc1cc(C)c(C(=O)N2CCN(c3ccccc3S(N)(=O)=O)CC2)c(C)c1NC1CCN(c2ccccc2C#N)CC1` [I-42]: the IC50 in assay [1] was over 10000 nM; in assay [2] it was 10 to 1000 nM.
In the same order, the values of `C=CCN(c1cc(C(=O)N2CCN(c3ccccc3S(N)(=O)=O)CC2)c(C)cc1C)C1CCN(c2ccccc2C#N)CC1` [I-46, 2-(4-(5-(Allyl(1-(2-cyanophenyl)piperidin-4-yl)amino)-2,4-dimethylbenzoyl)piperazin-1-yl)benzenesulfonamide] are over 10000 nM and 1000 to 3000 nM.
In the same order, the values of `Cc1cc(C)c(C(=O)N2CCN(c3ccccc3)[C@H](C)C2)cc1NC1CCN(c2ccccc2C#N)CC1` [I-47, (R)-2-(4-(2,4-Dimethyl-5-(3-methyl-4-phenylpiperazine-1-carbonyl)phenylamino)piperidin-1-yl)benzonitrile] are over 10000 nM and 1000 to 3000 nM.
The matching figures for `CCN(c1cc(C(=O)N2CCN(c3ccccc3S(N)(=O)=O)CC2)c(C)cc1C)C1CCN(c2ccccc2C#N)CC1` [I-51, 2-(4-(5-((1-(2-Cyanophenyl)piperidin-4-yl)(ethyl)amino)-2,4-dimethylbenzoyl)piperazin-1-yl)benzenesulfonamide]: over 10000 nM and 1000 to 3000 nM.
For the compound `Cc1cc(C)c(C(=O)N2CCN(c3ccccc3S(N)(=O)=O)CC2)cc1NC1CCN(c2ccccc2C#N)CC1(C)C` (centres unmarked) [I-52, 2-(4-(5-(1-(2-Cyanophenyl)-3,3-dimethylpiperidin-4-ylamino)-2,4-dimethylbenzoyl)piperazin-1-yl)benzenesulfonamide], the IC50 in assay [1] and in assay [2] was over 10000 nM in each case.
With `Cc1cc(C)c(C(=O)N2CCN(c3ccccc3C#N)[C@@H](CO)C2)cc1NC1CCN(c2ccccc2C#N)CC1` [I-53], the IC50 in assay [1] is over 10000 nM; in assay [2] it was 10 to 1000 nM.
The matching figures for `Cc1cc(C)c(C(=O)N2CCN(c3ccccc3)[C@@H](CO)C2)cc1NC1CCN(c2ccccc2)CC1` [I-54]: over 10000 nM and 1000 to 3000 nM.
The matching figures for `Cc1cc(C)c(C(=O)N2CCN(c3ccccn3)CC2)cc1NC1CCN(c2ccccc2C#N)CC1` [I-55]: over 10000 nM and 1000 to 3000 nM.
In the same order, the values of `Cc1cc(C)c(C(=O)N2CCN(c3ccccc3C#N)CC2)cc1NC1CCN(c2ccccc2)CC1` [I-56] are over 10000 nM and 1000 to 3000 nM.
For `Cc1cc(C)c(C(=O)N2CCN(c3ccccc3)CC2)cc1NC1CCN(c2ccccc2C#N)CC1` [I-57], the IC50 is over 10000 nM in assay [1] and 1000 to 3000 nM in assay [2].
The matching figures for `CNC(=O)C1CN(C(=O)c2cc(N(C)C3CCN(c4ccccc4C#N)CC3)c(C)cc2C)CCN1c1ccccc1` (centres unmarked) [I-58]: over 10000 nM and 10 to 1000 nM.
In the same order, the values of `Cc1cc(C)c(N(C)C2CCN(c3ccccc3C#N)CC2)cc1C(=O)N1CCN(c2ccccc2S(N)(=O)=O)CC1` [I-59] are over 10000 nM and 3000 to 5000 nM.
In the same order, the values of `Cc1cc(C)c(C(=O)N2CCN(c3ccccc3S(C)(=N)=O)CC2)cc1NC1CCN(c2ccccc2C#N)CC1` (centres unmarked) [I-62, 2-(4-{[5-(4-{2-[imino(methyl)oxo-λ^6-sulfanyl]phenyl}piperazine-1-carbonyl)-2,4-dimethylphenyl]amino}piperidin-1-yl)benzonitrile] are over 10000 nM and 10 to 1000 nM.
For `Cc1cc(C)c(C(=O)N2CCN(c3ccccc3)C(CO)C2)cc1NC1CCN(c2ccccc2C#N)CC1` (centres unmarked) [I-63, 2-[4-({5-[3-(Hydroxymethyl)-4-phenylpiperazine-1-carbonyl]-2,4-dimethylphenyl}amino)piperidin-1-yl]benzonitrile], the IC50 was over 10000 nM in assay [1] and 10 to 1000 nM in assay [2].
In the same order, the values of `CNC(=O)c1ccccc1N1CCN(C(=O)c2cc(NC3CCN(c4ccccc4C#N)CC3)c(C)cc2C)CC1` [I-64] are over 10000 nM and 10 to 1000 nM.

For the origin of these results see patent publication US10844013B2, “Phenyl amino piperidine mTORC inhibitors and uses thereof” (Navitor Pharmaceuticals, Inc., priority 2016, dated 2020).
